# According to article PMC8780549, “Discovery of Small Molecules as Membrane-Bound Catechol-O-methyltransferase Inhibitors with Interest in Parkinson’s Disease: Pharmacophore Modeling, Molecular Docking and In Vitro Experimental Validation Studies” (Pharmaceuticals, 2021):
# Tests used:
# [1] = system: dopaminergic neuronal cells (N27); assay: MTT cytotoxicity assay in N27 cells; assay type: cell-based; conditions: Rattus norvegicus, 48 h
# [2] = system: normal human dermal fibroblasts (NHDF); assay: MTT cytotoxicity assay in NHDF cells; assay type: cell-based; conditions: 48 h
# Liver MBCOMT = conditions: cited from earlier work
# human recombinant MBCOMT = target: T1, human recombinant MBCOMT (Homo sapiens, UniProt P21964); assay: In-vitro MBCOMT enzymatic inhibition assay (metanephrine from epinephrine, HPLC)
# T1 sequence (P21964 1-271): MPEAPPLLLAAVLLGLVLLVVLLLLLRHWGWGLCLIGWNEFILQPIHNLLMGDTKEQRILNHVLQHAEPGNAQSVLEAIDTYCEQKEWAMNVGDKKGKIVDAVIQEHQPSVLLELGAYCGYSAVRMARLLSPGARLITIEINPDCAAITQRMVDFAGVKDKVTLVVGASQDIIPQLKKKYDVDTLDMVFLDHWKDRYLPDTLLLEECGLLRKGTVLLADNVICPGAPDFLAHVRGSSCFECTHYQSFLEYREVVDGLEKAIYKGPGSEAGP
# [3] = IC50 (nM), Recombinant MBCOMT, this work, means with 95% confidence (n = 2 to 3)
# [4] = IC50, Recombinant MBCOMT, bound stated
Compound,IC50 [1],IC50 ([2]; Homo sapiens),IC50 (Liver MBCOMT),inhibition at 10 µM (human recombinant MBCOMT),inhibition at 100 µM (human recombinant MBCOMT),IC50 (human recombinant MBCOMT; [3]),IC50 (human recombinant MBCOMT; [4]),IC50 [2],"IC50 ([2]; Homo sapiens, NHDF)"
"O=c1[nH]cc(F)c(=O)[nH]1 [Compound 5-FU, 5-fluorouracil, reference compound]",4.28 µM,5.16 µM,,,,,,,
Cc1ccc(C(=O)c2cc(O)c(O)c([N+](=O)[O-])c2)cc1 [Tolcapone],,,0.123 µM,,,,,,
C/C(=N\Cc1ccccc1)c1ccc(O)c(O)c1O [ZINC98288],69.8 µM,> 100 µM,,100%,100%,944 nM,< 1000 nM,,
Cc1[nH]nc(-c2ccc(O)c(O)c2O)c1Oc1ccccc1 [ZINC302226],52.5 µM,> 100 µM,,56%,100%,1080 nM,,,
N#Cc1cc(O)c(O)c([N+](=O)[O-])c1 [ZINC27985035],61.3 µM,,,,,,,40.3 µM,40.3 µM
COC(=O)c1cc(O)c(O)c([N+](=O)[O-])c1 [ZINC38175059],,,,100%,100%,,,,
Cc1cc(=O)oc2c(O)c(O)c(C(=O)O)cc12 [ZINC68675288],,,,40%,43%,,,,
O=Cc1cc([N+](=O)[O-])c(O)c(O)c1Br [ZINC78496496],> 100 µM,92.9 µM,,81%,100%,470 nM,< 1000 nM,,
CC(C)Cn1c(-c2cc(-c3ccc(O)c(O)c3O)nc3c2c(O)nn3C(C)C)nc2ccccc21 [ZINC95473053],,,,41%,46%,,,,
C[C@@]1(C(=O)O)CC[C@]2(C)CC[C@]3(C)C4=CC(=O)c5c(cc(O)c(O)c5C=O)[C@@]4(C)CC[C@@]3(C)[C@@H]2C1 [ZINC605706834],,,,39%,34%,,,,
Cc1ccc(/N=C/c2c(O)c(O)cc3ccccc23)cc1 [ZINC825166420],17 µM,12.1 µM,,72%,100%,1540 nM,,,
COc1ccc(-c2nc(-c3cccc(O)c3O)[nH]c2-c2oc(C)cc(=O)c2O)cc1 [ZINC1547205762],,,,14%,27%,,,,
